Columns and labels:
[1] = Titer stability of UL4 and UL5 within formulations (HPLC); type: physicochemical; details: for content stability Result: over 12 weeks
Method: As shown in Formulation Examples 1, 2 and 3, cosmetic compositions of a high viscosity emulsified formulation, a low viscosity emulsified formulation and a solubilized formulation, respectively comprising 0.2% of the Gynostemma pentaphyllum gypenoside fraction, were stored under a condition of 4 CC, 30 CC, 45° C. and sunlight for 12 weeks and changes with passage of time (% compared to an initial content) in the gypenosides UL4 and UL5, which were index ingredients for quantification out of the Gynostemma pentaphyllum gypenoside ingredients, were observed through an HPLC analysis, and results thereof were indicated in Tables 10 to 12.

[2] = test system: human dermal fibroblast neonatal; assay: Cytotoxicity test (MTT); type: cell-based; details: for HDFn Viability: 48 h, % control
Method: A human dermal fibroblast neonatal (Cascade Co.) was inoculated into a 24-well microplate (5×10^4 cells/well) by using a medium, in which Dulbeco's Modified Eagle's Medium (DMEM) was supplemented with 10% fetal bovine serum, thus being cultured under a condition of 37° C. and 5% CO2 for 24 hours. Then, the same was replaced with a serum-free DMEM medium and cultured for 24 hours, thus treating the Gynostemma pentaphyllum gypenoside fraction obtained from the Example 1 and the gypenosides UL4 and UL5 isolated therefrom, respectively. After being cultured for 48 hours, an MTT solution was added thereto, thus being cultured for four hours. The medium was removed therefrom and DMSO was added thereto, thus dissolving an MTT formazan. The MTT formazan dissolved in the DMSO was taken out and an optical density thereof was measured at 570 nm, thus being compared to a group without sample treatment and indicated as % control.

[3] = test system: human dermal fibroblast neonatal; assay: Procollagen production (collagen synthesis promotion), ELISA kit; type: cell-based; details: 1 and 5 μg/ml, 48 h, versus positive control NAG at the same concentration, FIG. 3
Method: A human dermal fibroblast neonatal (Cascade Co.) was inoculated into a 24-well microplate (5×10^4 cells/well) by using a medium, in which Dulbeco's Modified Eagle's Medium (DMEM) was supplemented with 10% fetal bovine serum, thus being cultured under a condition of 37° C. and 5% CO2 for 24 hours. Then, the same was replaced with a serum-free DMEM medium and cultured for 24 hours, after which an appropriate amount of a sample fluid was treated so that a final concentration of each test compound could reach 1 μg/ml and 5 μg/ml. After being cultured for 48 hours, a cell culture fluid was collected and then an amount of procollagen was measured by using a collagen measurement kit of Takara Company (Takara Shuzo Co., Ltd.). First of all, the collected cell culture fluid was injected into a 96-well microplate, to which a primary collagen antibody was evenly applied, such that an antigen-antibody reaction could occur at 37° C. for three hours. The cell culture fluid was removed from the well and washed four times with PBS. A color causing material was injected into each well, after which a reaction took place at a room temperature for 15 minutes, such that 1 N sulfuric acid solution was added thereto, thus stopping the reaction. An optical density was measured at a wavelength of 450 nm by means of a spectrophotometer. […]

Question: Which “content, % compared to an initial content” value (“content, %” below) ([1]; High viscosity emulsified formulation, 4° C., 1 week) does the source give for `CC(C)=CC1C[C@](O)([C@H]2CC[C@]3(C)[C@@H]2CC[C@@H]2[C@@]4(C=O)CC[C@H](O[C@@H]5OC[C@H](O)[C@H](O[C@@H]6O[C@H](CO)[C@@H](O)[C@H](O)[C@H]6O)[C@H]5O[C@@H]5O[C@@H](C)[C@H](O)[C@@H](O)[C@H]5O)C(C)(C)[C@@H]4CC[C@]23C)[C@H](O)O1` (stereo partly drawn) [Gypenoside UL5, (23ξ)-3β,20β,21α-trihydroxy-19-oxo-21,23-epoxy-dammar-24-ene-3-O-[α-L-rhamnopyranosyl (1→2)][β-D-glucopyranosyl (1→3)]-α-L-arabinopyranoside] here?
Answer: 100.6%

Question: And the “content, %” value ([1]; High viscosity emulsified formulation, 4° C., 2 weeks)?
Answer: 95.1%

Question: And the “content, %” value ([1]; High viscosity emulsified formulation, 4° C., 4 weeks)?
Answer: 104.4%

Question: And the “content, %” value ([1]; High viscosity emulsified formulation, 4° C., 8 weeks)?
Answer: 104.2%

Question: What about the “content, %” value ([1]; High viscosity emulsified formulation, 4° C., 12 weeks) of the same compound?
Answer: 106.9%

Question: And the “content stability Result” value ([1]; High viscosity emulsified formulation, 4° C.)?
Answer: Stable

Question: And the “content, %” value ([1]; High viscosity emulsified formulation, 30° C., 1 week)?
Answer: 103.8%

Question: What about the “content, %” value ([1]; High viscosity emulsified formulation, 30° C., 2 weeks) of the same compound?
Answer: 105.7%

Question: And the “content, %” value ([1]; High viscosity emulsified formulation, 30° C., 4 weeks)?
Answer: 108.2%

Question: What about the “content, %” value ([1]; High viscosity emulsified formulation, 30° C., 8 weeks) of the same compound?
Answer: 103.4%

Question: And the “content, %” value ([1]; High viscosity emulsified formulation, 30° C., 12 weeks)?
Answer: 104.1%

Question: And the “content stability Result” value ([1]; High viscosity emulsified formulation, 30° C.)?
Answer: Stable

Question: And the “content, %” value ([1]; High viscosity emulsified formulation, 45° C., 1 week)?
Answer: 102.6%

Question: What about the “content, %” value ([1]; High viscosity emulsified formulation, 45° C., 2 weeks) of the same compound?
Answer: 104.6%

Question: What about the “content, %” value ([1]; High viscosity emulsified formulation, 45° C., 4 weeks) of the same compound?
Answer: 102.1%

Question: What about the “content, %” value ([1]; High viscosity emulsified formulation, 45° C., 8 weeks) of the same compound?
Answer: 101.8%

Question: What about the “content, %” value ([1]; High viscosity emulsified formulation, 45° C., 12 weeks) of the same compound?
Answer: 103.1%

Question: And the “content stability Result” value ([1]; High viscosity emulsified formulation, 45° C.)?
Answer: Stable

Question: And the “content, %” value ([1]; High viscosity emulsified formulation, Sunlight, 1 week)?
Answer: 101.8%

Question: What about the “content, %” value ([1]; High viscosity emulsified formulation, Sunlight, 2 weeks) of the same compound?
Answer: 99.2%

Question: And the “content, %” value ([1]; High viscosity emulsified formulation, Sunlight, 4 weeks)?
Answer: 103%

Question: And the “content, %” value ([1]; High viscosity emulsified formulation, Sunlight, 8 weeks)?
Answer: 101.1%

Question: And the “content, %” value ([1]; High viscosity emulsified formulation, Sunlight, 12 weeks)?
Answer: 104.9%

Question: What about the “content stability Result” value ([1]; High viscosity emulsified formulation, Sunlight) of the same compound?
Answer: Stable

Question: What about the “content, %” value ([1]; Low viscosity emulsified formulation, 4° C., 1 week) of the same compound?
Answer: 98.8%

Question: And the “content, %” value ([1]; Low viscosity emulsified formulation, 4° C., 2 weeks)?
Answer: 100.4%

Question: What about the “content, %” value ([1]; Low viscosity emulsified formulation, 4° C., 4 weeks) of the same compound?
Answer: 102.8%

Question: And the “content, %” value ([1]; Low viscosity emulsified formulation, 4° C., 8 weeks)?
Answer: 100.2%

Question: And the “content, %” value ([1]; Low viscosity emulsified formulation, 4° C., 12 weeks)?
Answer: 95.2%

Question: What about the “content stability Result” value ([1]; Low viscosity emulsified formulation, 4° C.) of the same compound?
Answer: Stable

Question: What about the “content, %” value ([1]; Low viscosity emulsified formulation, 30° C., 1 week) of the same compound?
Answer: 103.3%

Question: And the “content, %” value ([1]; Low viscosity emulsified formulation, 30° C., 2 weeks)?
Answer: 103.9%

Question: What about the “content, %” value ([1]; Low viscosity emulsified formulation, 30° C., 4 weeks) of the same compound?
Answer: 102.2%

Question: What about the “content, %” value ([1]; Low viscosity emulsified formulation, 30° C., 8 weeks) of the same compound?
Answer: 105.6%

Question: And the “content, %” value ([1]; Low viscosity emulsified formulation, 30° C., 12 weeks)?
Answer: 105%

Question: What about the “content stability Result” value ([1]; Low viscosity emulsified formulation, 30° C.) of the same compound?
Answer: Stable

Question: And the “content, %” value ([1]; Low viscosity emulsified formulation, 45° C., 1 week)?
Answer: 103.5%

Question: What about the “content, %” value ([1]; Low viscosity emulsified formulation, 45° C., 2 weeks) of the same compound?
Answer: 102%

Question: What about the “content, %” value ([1]; Low viscosity emulsified formulation, 45° C., 4 weeks) of the same compound?
Answer: 104.8%

Question: And the “content, %” value ([1]; Low viscosity emulsified formulation, 45° C., 8 weeks)?
Answer: 94.2%

Question: What about the “content, %” value ([1]; Low viscosity emulsified formulation, 45° C., 12 weeks) of the same compound?
Answer: 98.3%

Question: And the “content stability Result” value ([1]; Low viscosity emulsified formulation, 45° C.)?
Answer: Stable

Question: And the “content, %” value ([1]; Low viscosity emulsified formulation, Sunlight, 1 week)?
Answer: 94.4%

Question: What about the “content, %” value ([1]; Low viscosity emulsified formulation, Sunlight, 2 weeks) of the same compound?
Answer: 98.1%

Question: And the “content, %” value ([1]; Low viscosity emulsified formulation, Sunlight, 4 weeks)?
Answer: 101.6%

Question: And the “content, %” value ([1]; Low viscosity emulsified formulation, Sunlight, 8 weeks)?
Answer: 101%

Question: And the “content, %” value ([1]; Low viscosity emulsified formulation, Sunlight, 12 weeks)?
Answer: 102.6%

Question: And the “content stability Result” value ([1]; Low viscosity emulsified formulation, Sunlight)?
Answer: Stable

Question: And the “content, %” value ([1]; Solubilized formulation, 4° C., 1 week)?
Answer: 98.8%

Question: What about the “content, %” value ([1]; Solubilized formulation, 4° C., 2 weeks) of the same compound?
Answer: 95.7%

Question: What about the “content, %” value ([1]; Solubilized formulation, 4° C., 4 weeks) of the same compound?
Answer: 105.1%

Question: And the “content, %” value ([1]; Solubilized formulation, 4° C., 8 weeks)?
Answer: 102.8%

Question: What about the “content, %” value ([1]; Solubilized formulation, 4° C., 12 weeks) of the same compound?
Answer: 102.3%

Question: And the “content stability Result” value ([1]; Solubilized formulation, 4° C.)?
Answer: Stable

Question: And the “content, %” value ([1]; Solubilized formulation, 30° C., 1 week)?
Answer: 100%

Question: What about the “content, %” value ([1]; Solubilized formulation, 30° C., 2 weeks) of the same compound?
Answer: 105.1%

Question: What about the “content, %” value ([1]; Solubilized formulation, 30° C., 4 weeks) of the same compound?
Answer: 108.6%

Question: And the “content, %” value ([1]; Solubilized formulation, 30° C., 8 weeks)?
Answer: 103.7%

Question: And the “content, %” value ([1]; Solubilized formulation, 30° C., 12 weeks)?
Answer: 104.9%

Question: What about the “content stability Result” value ([1]; Solubilized formulation, 30° C.) of the same compound?
Answer: Stable

Question: And the “content, %” value ([1]; Solubilized formulation, 45° C., 1 week)?
Answer: 100.3%

Question: And the “content, %” value ([1]; Solubilized formulation, 45° C., 2 weeks)?
Answer: 101.4%

Question: And the “content, %” value ([1]; Solubilized formulation, 45° C., 4 weeks)?
Answer: 97.2%

Question: What about the “content, %” value ([1]; Solubilized formulation, 45° C., 8 weeks) of the same compound?
Answer: 102.1%

Question: What about the “content, %” value ([1]; Solubilized formulation, 45° C., 12 weeks) of the same compound?
Answer: 95.6%

Question: And the “content stability Result” value ([1]; Solubilized formulation, 45° C.)?
Answer: Stable

Question: And the “content, %” value ([1]; Solubilized formulation, Sunlight, 1 week)?
Answer: 97.9%

Question: And the “content, %” value ([1]; Solubilized formulation, Sunlight, 2 weeks)?
Answer: 95.9%

Question: What about the “content, %” value ([1]; Solubilized formulation, Sunlight, 4 weeks) of the same compound?
Answer: 104.9%

Question: What about the “content, %” value ([1]; Solubilized formulation, Sunlight, 8 weeks) of the same compound?
Answer: 103.5%

Question: What about the “content, %” value ([1]; Solubilized formulation, Sunlight, 12 weeks) of the same compound?
Answer: 103.3%

Question: And the “content stability Result” value ([1]; Solubilized formulation, Sunlight)?
Answer: Stable

Question: And the “HDFn Viability” value ([2]; 5 ug/ml)?
Answer: 100%

Question: What about the “HDFn Viability” value ([2]; 10 ug/ml) of the same compound?
Answer: 102%

Question: And the “HDFn Viability” value ([2]; 50 ug/ml)?
Answer: 113%

Question: What about the cytotoxicity ([2]; at concentrations promoting procollagen synthesis) of the same compound?
Answer: did not show any cytotoxicity

Question: What about the “procollagen-producing effect compared with NAG” value [3] of the same compound?
Answer: the same or larger amount of procollagen
